Experimental data taken from patent publication US20230365559A1, “NOVEL AMINOPYRIDINES AND THEIR USE IN TREATING CANCER” (priority 2020, published 2023).
Values joined by “and” are separate entries in the source; they are usually repeats but may differ in a detail not shown here. Equal entries are not always repeated. Where two headings read alike, the source gives them in different places.

What was measured:
[1] = system: HAP1 cells; experiment: Radiosensitisation of HAP1 wild type cells, regrowth assay; assay type: cell-based, human; conditions: for radiosensitisation / differential growth inhibition of HAP1 cells: 3 Gy cobalt-60 gamma irradiation relative to radiation-only; for IC50: Homo sapiens, HAP1, read-out: HAP1 wt IC50; for effect in unirradiated HAP1 cells: 0 Gy
[2] = biological target: ATM (Homo sapiens, UniProt Q13315); experiment: ATM Human PIKK Kinase Enzymatic ELISA/EIA Assay, KinaseProfiler (Eurofins Discovery); assay type: biochemical; conditions: for IC50: KinaseProfiler, Km ATP, Table 15, read-out: Inhibition of PIKK kinase activity ATM
Chain of ATM (Q13315 whole entry): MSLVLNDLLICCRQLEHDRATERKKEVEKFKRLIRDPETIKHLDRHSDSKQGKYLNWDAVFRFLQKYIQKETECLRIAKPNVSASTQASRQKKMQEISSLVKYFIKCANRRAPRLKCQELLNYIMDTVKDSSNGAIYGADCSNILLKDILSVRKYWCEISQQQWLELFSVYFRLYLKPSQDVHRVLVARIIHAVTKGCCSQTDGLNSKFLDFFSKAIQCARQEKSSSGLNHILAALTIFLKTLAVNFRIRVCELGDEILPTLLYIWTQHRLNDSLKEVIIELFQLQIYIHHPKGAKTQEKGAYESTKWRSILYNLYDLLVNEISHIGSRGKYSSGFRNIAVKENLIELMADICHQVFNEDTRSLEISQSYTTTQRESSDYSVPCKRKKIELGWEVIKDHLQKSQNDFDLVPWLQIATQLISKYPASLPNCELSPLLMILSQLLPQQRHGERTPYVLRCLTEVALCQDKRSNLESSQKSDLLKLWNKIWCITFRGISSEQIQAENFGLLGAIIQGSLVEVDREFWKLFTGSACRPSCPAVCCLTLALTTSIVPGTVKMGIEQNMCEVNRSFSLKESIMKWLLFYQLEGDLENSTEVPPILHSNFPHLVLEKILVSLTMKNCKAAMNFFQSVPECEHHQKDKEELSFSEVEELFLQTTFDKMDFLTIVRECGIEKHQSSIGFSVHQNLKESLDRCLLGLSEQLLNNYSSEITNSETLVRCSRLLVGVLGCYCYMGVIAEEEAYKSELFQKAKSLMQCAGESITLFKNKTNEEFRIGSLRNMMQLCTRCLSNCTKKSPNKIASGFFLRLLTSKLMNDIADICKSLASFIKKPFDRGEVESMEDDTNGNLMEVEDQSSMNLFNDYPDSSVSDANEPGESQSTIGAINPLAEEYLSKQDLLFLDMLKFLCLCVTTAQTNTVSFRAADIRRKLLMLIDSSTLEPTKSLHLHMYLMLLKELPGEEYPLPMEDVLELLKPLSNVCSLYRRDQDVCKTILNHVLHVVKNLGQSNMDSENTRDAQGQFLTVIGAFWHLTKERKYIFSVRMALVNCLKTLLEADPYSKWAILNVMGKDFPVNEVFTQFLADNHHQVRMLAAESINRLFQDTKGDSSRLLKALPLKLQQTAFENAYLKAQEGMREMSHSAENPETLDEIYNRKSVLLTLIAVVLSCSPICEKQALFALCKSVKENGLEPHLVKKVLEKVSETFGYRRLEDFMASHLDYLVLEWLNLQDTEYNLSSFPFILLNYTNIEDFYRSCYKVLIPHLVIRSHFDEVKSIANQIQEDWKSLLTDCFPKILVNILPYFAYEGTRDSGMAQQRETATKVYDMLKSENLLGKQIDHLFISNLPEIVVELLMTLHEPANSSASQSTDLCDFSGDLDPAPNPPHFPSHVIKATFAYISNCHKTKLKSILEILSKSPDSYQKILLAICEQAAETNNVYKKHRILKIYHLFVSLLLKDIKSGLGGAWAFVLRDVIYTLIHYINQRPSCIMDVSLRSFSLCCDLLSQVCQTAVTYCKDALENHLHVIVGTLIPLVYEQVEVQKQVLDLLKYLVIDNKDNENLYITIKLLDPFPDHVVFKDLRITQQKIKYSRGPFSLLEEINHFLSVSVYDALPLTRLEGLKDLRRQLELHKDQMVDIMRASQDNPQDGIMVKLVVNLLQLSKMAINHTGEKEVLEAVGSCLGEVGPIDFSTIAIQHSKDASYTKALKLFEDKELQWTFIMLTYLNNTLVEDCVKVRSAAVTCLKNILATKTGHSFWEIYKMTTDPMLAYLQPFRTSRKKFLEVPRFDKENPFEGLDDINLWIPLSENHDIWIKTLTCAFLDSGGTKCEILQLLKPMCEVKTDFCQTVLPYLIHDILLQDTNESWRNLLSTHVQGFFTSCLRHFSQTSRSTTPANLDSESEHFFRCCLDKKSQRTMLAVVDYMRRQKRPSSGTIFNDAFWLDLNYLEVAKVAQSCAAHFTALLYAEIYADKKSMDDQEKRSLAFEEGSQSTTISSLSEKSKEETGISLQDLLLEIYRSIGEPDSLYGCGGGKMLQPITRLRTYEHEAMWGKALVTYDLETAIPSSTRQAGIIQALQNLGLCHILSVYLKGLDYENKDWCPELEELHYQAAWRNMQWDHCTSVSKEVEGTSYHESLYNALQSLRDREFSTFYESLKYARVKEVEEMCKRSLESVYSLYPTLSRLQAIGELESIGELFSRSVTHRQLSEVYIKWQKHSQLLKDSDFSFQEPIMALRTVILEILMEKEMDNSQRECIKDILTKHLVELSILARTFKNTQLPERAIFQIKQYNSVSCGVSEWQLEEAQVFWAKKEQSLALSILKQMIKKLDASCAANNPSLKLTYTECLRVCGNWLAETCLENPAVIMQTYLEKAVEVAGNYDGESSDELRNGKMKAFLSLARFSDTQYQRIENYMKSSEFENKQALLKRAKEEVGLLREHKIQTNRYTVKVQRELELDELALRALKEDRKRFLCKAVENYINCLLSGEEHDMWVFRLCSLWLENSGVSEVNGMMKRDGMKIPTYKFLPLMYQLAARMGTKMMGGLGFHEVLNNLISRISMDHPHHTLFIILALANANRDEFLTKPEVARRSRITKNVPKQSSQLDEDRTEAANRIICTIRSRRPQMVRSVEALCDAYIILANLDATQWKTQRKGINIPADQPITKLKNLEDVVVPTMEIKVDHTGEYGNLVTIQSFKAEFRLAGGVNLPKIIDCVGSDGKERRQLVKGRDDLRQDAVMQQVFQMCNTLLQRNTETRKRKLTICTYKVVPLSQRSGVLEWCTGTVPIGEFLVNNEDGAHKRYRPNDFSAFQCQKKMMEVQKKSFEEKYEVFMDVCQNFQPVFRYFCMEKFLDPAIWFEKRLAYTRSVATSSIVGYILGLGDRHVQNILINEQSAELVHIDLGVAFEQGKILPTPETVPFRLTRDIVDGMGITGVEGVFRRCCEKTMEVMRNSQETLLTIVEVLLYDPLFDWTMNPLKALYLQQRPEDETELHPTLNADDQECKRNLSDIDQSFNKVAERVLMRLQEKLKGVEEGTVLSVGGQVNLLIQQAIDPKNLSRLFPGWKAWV

[3] = biological target: human mTOR (Homo sapiens, UniProt P42345); experiment: Inhibition of mTOR kinase activity, HotSpot assay, phosphorylation of 4EPB1
[4] = system: UT-SCC-54C cells; experiment: Radiosensitisation of UT-SCC-54C HNSCC cells, clonogenic survival, oxic and anoxic (Table 18); assay type: cell-based, human; conditions: for Plating efficiency drug/no drug: no radiation
[5] = biological target: human DNA-PK (Homo sapiens, UniProt P78527); experiment: Inhibition of DNA-PKcs kinase activity, HotSpot assay (Reaction Biology), [γ-33P]-ATP phosphorylation of peptide substrate; assay type: biochemical
[6] = biological target: ATR/ATRIP (Homo sapiens, UniProt Q13535); experiment: ATR/ATRIP Human PIKK Kinase Enzymatic Radiometric Assay, KinaseProfiler (Eurofins Discovery); assay type: biochemical; conditions: Km ATP, Table 15, read-out: Inhibition of PIKK kinase activity ATR
[7] = system: UT-SCC-54C cells; experiment: Radiosensitisation of UT-SCC-54C HNSCC cells, regrowth (sulforhodamine B) assay, oxic (Table 16); assay type: cell-based, human; conditions: for IC50: Homo sapiens, read-out: IC50; for S50: compound in combination with 3 Gy of radiation, 50% inhibition of regrowth fraction, UT-SCC-54C
[8] = biological target: human PI3Kα (p110α/p85α) (Homo sapiens, UniProt P42336); experiment: Inhibition of PI3Kα kinase activity, ADP-Glo Assay (Reaction Biology); assay type: biochemical; conditions: 10 μM ATP; mean of two replicates; Table 12; read-out: Inhibition of kinase activity (as IC50) PICK
Chain of human PI3Kα (p110α/p85α) (P42336 whole entry): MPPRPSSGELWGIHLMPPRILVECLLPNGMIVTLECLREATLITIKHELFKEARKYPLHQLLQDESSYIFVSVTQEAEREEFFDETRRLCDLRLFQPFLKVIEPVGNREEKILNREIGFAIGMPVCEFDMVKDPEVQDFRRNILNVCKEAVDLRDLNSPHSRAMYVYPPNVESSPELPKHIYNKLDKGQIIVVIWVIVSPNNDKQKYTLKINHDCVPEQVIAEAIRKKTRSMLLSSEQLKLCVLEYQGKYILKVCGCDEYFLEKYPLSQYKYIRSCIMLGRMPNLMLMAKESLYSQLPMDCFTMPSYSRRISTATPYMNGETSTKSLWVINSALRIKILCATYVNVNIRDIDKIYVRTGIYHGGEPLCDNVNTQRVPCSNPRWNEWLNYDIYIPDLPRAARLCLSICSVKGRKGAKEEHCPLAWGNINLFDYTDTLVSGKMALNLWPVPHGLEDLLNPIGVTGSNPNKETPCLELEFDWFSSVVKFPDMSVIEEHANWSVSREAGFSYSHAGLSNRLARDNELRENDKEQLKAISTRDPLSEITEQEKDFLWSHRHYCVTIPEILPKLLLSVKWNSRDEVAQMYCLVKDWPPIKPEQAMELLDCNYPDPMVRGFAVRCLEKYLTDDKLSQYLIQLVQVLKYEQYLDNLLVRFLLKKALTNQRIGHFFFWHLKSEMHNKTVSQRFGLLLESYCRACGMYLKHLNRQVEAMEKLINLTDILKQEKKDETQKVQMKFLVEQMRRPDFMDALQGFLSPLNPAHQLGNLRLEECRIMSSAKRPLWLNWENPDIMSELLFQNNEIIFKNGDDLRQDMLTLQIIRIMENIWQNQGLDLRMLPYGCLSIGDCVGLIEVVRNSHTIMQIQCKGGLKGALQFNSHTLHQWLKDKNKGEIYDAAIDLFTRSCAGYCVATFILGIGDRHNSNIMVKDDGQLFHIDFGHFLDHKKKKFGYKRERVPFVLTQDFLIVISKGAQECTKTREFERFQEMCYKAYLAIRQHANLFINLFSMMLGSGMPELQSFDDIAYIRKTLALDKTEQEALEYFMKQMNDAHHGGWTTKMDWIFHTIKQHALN
Chain of human PI3Kα (p110α/p85α) (P27986 whole entry partner): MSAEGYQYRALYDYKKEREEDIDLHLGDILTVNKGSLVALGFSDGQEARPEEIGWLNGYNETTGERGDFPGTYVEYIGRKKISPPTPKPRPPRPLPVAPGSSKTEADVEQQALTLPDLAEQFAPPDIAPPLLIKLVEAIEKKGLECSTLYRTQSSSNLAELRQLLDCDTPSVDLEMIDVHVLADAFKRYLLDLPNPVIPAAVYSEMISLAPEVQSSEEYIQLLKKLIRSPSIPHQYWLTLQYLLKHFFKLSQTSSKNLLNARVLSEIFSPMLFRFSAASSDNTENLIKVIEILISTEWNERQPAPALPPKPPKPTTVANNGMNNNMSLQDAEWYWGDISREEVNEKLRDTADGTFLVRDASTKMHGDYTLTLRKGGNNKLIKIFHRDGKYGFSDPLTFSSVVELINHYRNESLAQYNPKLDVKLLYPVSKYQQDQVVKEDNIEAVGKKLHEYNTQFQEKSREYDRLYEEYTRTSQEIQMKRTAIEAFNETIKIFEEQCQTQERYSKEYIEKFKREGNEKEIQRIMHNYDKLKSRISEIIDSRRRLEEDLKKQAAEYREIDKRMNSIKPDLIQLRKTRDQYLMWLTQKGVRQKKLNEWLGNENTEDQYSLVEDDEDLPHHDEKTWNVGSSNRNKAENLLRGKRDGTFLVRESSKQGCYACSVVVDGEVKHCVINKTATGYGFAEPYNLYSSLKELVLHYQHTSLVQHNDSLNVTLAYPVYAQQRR

[9] = system: HAP1/PRKDC−/− cells; experiment: Radiosensitisation of DNA-PK null HAP1/PRKDC−/− cells, regrowth assay; assay type: cell-based, human; conditions: for radiosensitisation / differential growth inhibition of DNA-PK null HAP1 line: 3 Gy, HAP1/PRKDC−/−; for IC50: Homo sapiens, HAP1
[10] = system: UT-SCC-54C tumour xenografts; experiment: Inhibition of UT-SCC-54C tumour growth, tumour xenograft study; assay type: in vivo, female NIH-III mice
[11] = system: UT-SCC-54C tumour xenografts; experiment: Radiosensitisation of UT-SCC-54C HNSCC tumours, ex vivo clonogenic assay of tumour xenografts; assay type: in vivo, female NIH-III mice
[12] = Inhibition of PIKK kinase activity mTOR/FRAP (nM), HotSpot assay Reaction Biology Corp., Table 15
[13] = Inhibition of kinase activity (as IC50) mTOR (nM), 10 μM ATP, mean of two replicates, Table 12
[14] = 10 μM ATP, 10 μg/ml DNA, mean of two replicates, Table 12, read-out: Inhibition of kinase activity (as IC50) DNA-PK (converted)
[15] = HotSpot assay Reaction Biology Corp., Table 15, read-out: Inhibition of PIKK kinase activity DNA-PK

Question: With `Cc1cc(OCc2cnc([N+](=O)[O-])n2C)ccc1Nc1cc2c(cn1)n(C)c(=O)n2C1CCOCC1` [Compound 236, 3-Methyl-6-((2-methyl-4-((1-methyl-2-nitro-1H-imidazol-5-yl)methoxy)phenyl)amino)-1-(tetrahydro-2H-pyran-4-yl)-1,3-dihydro-2H-imidazo[4,5-c]pyridin-2-one] as the compound, how does the “radiosensitisation / differential growth inhibition of HAP1 cells” value [1] read?
Answer: Its value is “did not demonstrate any differential growth inhibition”.

Question: What about the IC50 [1] of the same compound?
Answer: Its IC50 is > 10 µM.

Question: And the IC50 [2]?
Answer: Its IC50 is 57.3 µM.

Question: And the IC50 [3, 12]?
Answer: Its IC50 is 92900 nM.

Question: What about the IC50 [3, 13] of the same compound?
Answer: Its IC50 is 92900 nM and > 100000 nM.

Question: What about the “D1 (radiation dose for 1% surviving fraction)” value ([4]; 0% O2, compound conc 1 μM) of the same compound?
Answer: The value was 17.4 Gy.

Question: And the “D10 (radiation dose for 10% surviving fraction)” value ([4]; 0% O2, compound conc 1 μM)?
Answer: Its value is 9.96 Gy.

Question: And the “SER1 (sensitiser enhancement ratio at 1% surviving fraction)” value ([4]; 0% O2, compound conc 1 μM)?
Answer: Its value is 1.37.

Question: And the “SER10 (sensitiser enhancement ratio at 10% surviving fraction)” value ([4]; 0% O2, compound conc 1 μM)?
Answer: The value was 1.58.

Question: And the “Plating efficiency drug/no drug” value ([4]; 0% O2, compound conc 1 μM)?
Answer: Its value is 1.09.

Question: And the “D1 (radiation dose for 1% surviving fraction)” value ([4]; 20% O2, compound conc 1 μM)?
Answer: Its value is 9.41 Gy.

Question: And the “D10 (radiation dose for 10% surviving fraction)” value ([4]; 20% O2, compound conc 1 μM)?
Answer: The value was 6.06 Gy.

Question: What about the “SER1 (sensitiser enhancement ratio at 1% surviving fraction)” value ([4]; 20% O2, compound conc 1 μM) of the same compound?
Answer: The value was 1.00.

Question: What about the “SER10 (sensitiser enhancement ratio at 10% surviving fraction)” value ([4]; 20% O2, compound conc 1 μM) of the same compound?
Answer: Its value is 0.94.

Question: What about the “Plating efficiency drug/no drug” value ([4]; 20% O2, compound conc 1 μM) of the same compound?
Answer: The value was 1.05.

Question: And the “SER (sensitiser enhancement ratio)” value ([4]; UT-SCC-54C, anoxic conditions, clonogenic survival, FIG. 10)?
Answer: The value was 1.51.

Question: What about the “sensitisation of UT-SCC-54C cells selectively under anoxia” value ([4]; oxic vs anoxic, clonogenic survival, FIGS. 9 and 10) of the same compound?
Answer: The value was “provide sensitisation of UT-SCC-54C cells selectively under anoxia”.

Question: What about the IC50 [5, 14] of the same compound?
Answer: Its IC50 is 0.78 µM and 2.2 µM.

Question: What about the IC50 [5, 15] of the same compound?
Answer: The IC50 was 0.78 µM.

Question: And the IC50 [6]?
Answer: Its IC50 is > 100 µM.

Question: What about the IC50 [7] of the same compound?
Answer: Its IC50 is > 10 µM.

Question: And the “S50” value ([7]; oxic)?
Answer: The value was >10 µM.

Question: What about the “radiosensitisation / differential growth inhibition of UT-SCC-54C cells” value ([7]; oxic, 0 or 3 Gy, regrowth assay) of the same compound?
Answer: The value was “did not display any differential growth inhibition”.

Question: And the IC50 [8]?
Answer: Its IC50 is 16.2 µM and 52.3 µM.

Question: And the “radiosensitisation / differential growth inhibition of DNA-PK null HAP1 line” value [9]?
Answer: The value was “did not demonstrate any differential growth inhibition”.

Question: What about the IC50 [9] of the same compound?
Answer: Its IC50 is > 10 µM.

Question: What does the source list for `Cc1nc2cc(C)c(Nc3cc4c(cn3)n(C)c(=O)n4C3CCOCC3)cc2s1` [Compound 127, 6-((2,5-Dimethylbenzo[d]thiazol-6-yl)amino)-3-methyl-1-(tetrahydro-2H-pyran-4-yl)-1,3-dihydro-2H-imidazo[4,5-c]pyridin-2-one]?
Answer: effect in unirradiated HAP1 cells [1]: little effect; radiosensitisation / differential growth inhibition of HAP1 cells [1]: concentration-dependent radiosensitisation; IC50 [1]: > 10 µM; IC50 [2]: 2.56 µM; IC50 [3, 12]: 5420 nM; IC50 [3, 13]: 5420 nM; IC50 [5, 14]: 0.00711 µM; IC50 [5, 15]: 0.00711 µM; IC50 [7]: > 10 µM; S50 ([7]; oxic): 0.22 µM; IC50 [8]: 3.96 µM; radiosensitisation / differential growth inhibition of DNA-PK null HAP1 line [9]: did not radiosensitise; IC50 [9]: > 10 µM

Question: How did the “effect in unirradiated HAP1 cells” value [1] turn out when `CCOC(=O)c1cnc2cc(C)c(Nc3cc4c(cn3)n(C)c(=O)n4C3CCOCC3)cn12` [Compound 129, Ethyl 7-Methyl-6-((3-methyl-2-oxo-1-(tetrahydro-2H-pyran-4-yl)-2,3-dihydro-1H-imidazo[4,5-c]pyridin-6-yl)amino)imidazo[1,2-a]pyridine-3-carboxylate] was run?
Answer: The value was “little effect”.

Question: And the “radiosensitisation / differential growth inhibition of HAP1 cells” value [1]?
Answer: The value was “concentration-dependent radiosensitisation”.

Question: What about the IC50 [1] of the same compound?
Answer: Its IC50 is > 10 µM.

Question: And the remaining activity at 1 µM ([2]; read-out: ATM, Percent of control at 1 μM)?
Answer: Its remaining activity at 1 µM is 79%.

Question: What about the IC50 [3, 12] of the same compound?
Answer: Its IC50 is 18900 nM.

Question: And the IC50 [3, 13]?
Answer: Its IC50 is 19000 nM.

Question: What about the IC50 [5, 14] of the same compound?
Answer: Its IC50 is 0.00257 µM.

Question: And the IC50 [5, 15]?
Answer: Its IC50 is 0.00257 µM.

Question: What about the IC50 [7] of the same compound?
Answer: Its IC50 is > 10 µM.

Question: What about the “S50” value ([7]; oxic) of the same compound?
Answer: The value was 0.09 µM.

Question: And the IC50 [8]?
Answer: Its IC50 is 0.314 µM.

Question: And the “radiosensitisation / differential growth inhibition of DNA-PK null HAP1 line” value [9]?
Answer: The value was “did not radiosensitise”.

Question: What about the IC50 [9] of the same compound?
Answer: Its IC50 is > 10 µM.

Question: Which results are given for `COc1ccc(Nc2cc3c(cn2)n(C)c(=O)n3C2CCOCC2)c(C)c1` [Compound 121, 6-((4-Methoxy-2-methylphenyl)amino)-3-methyl-1-(tetrahydro-2H-pyran-4-yl)-1,3-dihydro-2H-imidazo[4,5-c]pyridin-2-one]?
Answer: effect in unirradiated HAP1 cells [1]: little effect; radiosensitisation / differential growth inhibition of HAP1 cells [1]: concentration-dependent radiosensitisation; D1 (radiation dose for 1% surviving fraction) ([4]; 0% O2, compound conc 1 μM): 11.7 Gy; D10 (radiation dose for 10% surviving fraction) ([4]; 0% O2, compound conc 1 μM): 6.18 Gy; D1 (radiation dose for 1% surviving fraction) ([4]; 20% O2, compound conc 0.33 μM): 1.29 Gy; D10 (radiation dose for 10% surviving fraction) ([4]; 20% O2, compound conc 0.33 μM): 4.63 Gy; D10 (radiation dose for 10% surviving fraction) ([4]; 20% O2, compound conc 1 μM): 2.65 Gy; D1 (radiation dose for 1% surviving fraction) ([4]; 20% O2, compound conc 3 μM): 3.44 Gy; D10 (radiation dose for 10% surviving fraction) ([4]; 20% O2, compound conc 3 μM): 1.73 Gy; radiosensitisation, clonogenic survival endpoint ([4]; UT-SCC-54C, FIG. 8 and Table 18): concentration-dependent increases in radiosensitisation; radiosensitisation of UT-SCC-54C cells under oxic conditions ([4]; oxic, clonogenic survival, FIG. 9): provides radiosensitisation; tumour growth inhibition in combination with radiation compared to radiation alone ([10]; PO 2×100 mg/kg, 10 Gy (P=0.007)): significant tumour growth inhibition; tumour growth inhibition in combination with radiation compared to radiation alone ([10]; PO 2×400 mg/kg, 10 Gy (P=0.03)): significant tumour growth inhibition; tumour growth inhibition, compound alone ([10]; PO, compared to DMSO control, FIG. 12A): little additional tumour growth inhibition; IC50 [6]: > 100 µM; S50 ([7]; oxic): 0.34 µM; reduction in clonogens/gram of tumour, compound with radiation compared to radiation alone ([11]; IP 50 mg/kg 15 min before and 6 h after 13 Gy whole-body irradiation): significant (p=0.005) additional reduction; reduction in clonogens/gram of tumour tissue, compound alone ([11]; IP 2 x 50 mg/kg, no radiation, compared to DMSO control): no reduction
